T1: Bifunctional dihydrofolate reductase-thymidylate synthase (Toxoplasma gondii, UniProt Q07422)
T1 sequence (Q07422 whole entry): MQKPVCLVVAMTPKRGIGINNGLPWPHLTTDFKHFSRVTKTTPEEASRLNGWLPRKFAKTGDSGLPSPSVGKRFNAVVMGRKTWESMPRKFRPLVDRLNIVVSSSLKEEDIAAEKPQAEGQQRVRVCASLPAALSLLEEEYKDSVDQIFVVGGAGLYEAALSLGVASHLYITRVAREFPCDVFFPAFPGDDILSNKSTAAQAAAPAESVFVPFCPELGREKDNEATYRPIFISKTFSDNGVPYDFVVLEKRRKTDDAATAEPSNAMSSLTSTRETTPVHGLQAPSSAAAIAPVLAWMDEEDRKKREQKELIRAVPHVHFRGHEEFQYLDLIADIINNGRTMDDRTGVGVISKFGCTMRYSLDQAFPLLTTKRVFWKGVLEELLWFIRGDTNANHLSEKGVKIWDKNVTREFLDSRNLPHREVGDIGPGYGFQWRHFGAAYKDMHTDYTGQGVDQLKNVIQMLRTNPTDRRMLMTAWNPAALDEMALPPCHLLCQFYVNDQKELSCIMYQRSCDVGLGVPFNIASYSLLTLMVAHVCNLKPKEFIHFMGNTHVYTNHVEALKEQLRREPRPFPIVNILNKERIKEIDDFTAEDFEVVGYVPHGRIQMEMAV

T2: Dihydrofolate reductase (Homo sapiens, UniProt P00374)
T2 sequence (P00374 whole entry): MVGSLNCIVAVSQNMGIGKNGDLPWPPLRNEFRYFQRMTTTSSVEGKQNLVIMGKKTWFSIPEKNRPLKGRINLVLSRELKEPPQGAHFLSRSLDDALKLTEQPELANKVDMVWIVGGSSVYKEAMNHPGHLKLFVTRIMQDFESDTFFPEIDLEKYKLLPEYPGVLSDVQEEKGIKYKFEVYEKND

T3: Thymidylate synthase (Lactobacillus casei, UniProt P00469)
T3 sequence (P00469 whole entry): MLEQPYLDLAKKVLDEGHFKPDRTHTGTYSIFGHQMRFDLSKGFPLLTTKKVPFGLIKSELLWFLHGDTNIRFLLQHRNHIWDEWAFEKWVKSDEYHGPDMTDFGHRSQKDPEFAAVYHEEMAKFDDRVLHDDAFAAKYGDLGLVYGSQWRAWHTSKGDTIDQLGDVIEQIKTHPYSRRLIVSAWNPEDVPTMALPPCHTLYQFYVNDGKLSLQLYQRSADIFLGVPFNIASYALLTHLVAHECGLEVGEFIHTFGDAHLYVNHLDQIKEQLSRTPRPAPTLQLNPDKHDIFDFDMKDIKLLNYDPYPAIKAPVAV

T4: Dihydrofolate reductase (Escherichia coli, UniProt P0ABQ4)
T4 sequence (P0ABQ4 whole entry): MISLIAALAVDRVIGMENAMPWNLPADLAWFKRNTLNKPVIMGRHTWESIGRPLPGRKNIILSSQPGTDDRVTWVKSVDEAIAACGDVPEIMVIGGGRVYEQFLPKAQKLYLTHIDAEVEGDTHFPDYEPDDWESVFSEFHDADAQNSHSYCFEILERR

B1: Folylpolyglutamate synthase, mitochondrial (Homo sapiens), Q05932 (protein)
chain: MSRARSHLRAALFLAAASARGITTQVAARRGLSAWPVPQEPSMEYQDAVRMLNTLQTNAGYLEQVKRQRGDPQTQLEAMELYLARSGLQVEDLDRLNIIHVTGTKGKGSTCAFTECILRSYGLKTGFFSSPHLVQVRERIRINGQPISPELFTKYFWRLYHRLEETKDGSCVSMPPYFRFLTLMAFHVFLQEKVDLAVVEVGIGGAYDCTNIIRKPVVCGVSSLGIDHTSLLGDTVEKIAWQKGGIFKQGVPAFTVLQPEGPLAVLRDRAQQISCPLYLCPMLEALEEGGPPLTLGLEGEHQRSNAALALQLAHCWLQRQDRHGAGEPKASRPGLLWQLPLAPVFQPTSHMRLGLRNTEWPGRTQVLRRGPLTWYLDGAHTASSAQACVRWFRQALQGRERPSGGPEVRVLLFNATGDRDPAALLKLLQPCQFDYAVFCPNLTEVSSTGNADQQNFTVTLDQVLLRCLEHQQHWNHLDEEQASPDLWSAPSPEPGGSASLLLAPHPPHTCSASSLVFSCISHALQWISQGRDPIFQPPSPPKGLLTHPVAHSGASILREAAAIHVLVTGSLHLVGGVLKLLEPALSQ

What was measured:
[1] = ratio of vmax to Km
[2] = Growth inhibition of MTX-resistant R30dm sublines.; format: functional, Homo sapiens
FaDu [3] = assay: protection of FaDu cells from the growth inhibitory effects by combination of 50 uM of thymidine (TdR).; format: functional, Homo sapiens; design: scale not given: the % may be the effect or the level left
FaDu [4] = assay: protection of FaDu cells from the growth inhibitory effects of the compound.; format: functional, Homo sapiens; design: scale not given: the % may be the effect or the level left
[5] = Growth inhibition of MTX-resistant R2(Bos) sublines.; format: functional, Homo sapiens
[6] = Growth inhibition of MTX-resistant R1 sublines.; format: functional, Homo sapiens
FaDu [7] = assay: protection of FaDu cells from the growth inhibitory effects by 50 uM of hypoxanthine (HX); format: functional, Homo sapiens; design: scale not given: the % may be the effect or the level left
FaDu [8] = assay: protection of FaDu cells from the growth inhibitory effects by 40 uM of thymidine (TdR).; format: functional, Homo sapiens; design: scale not given: the % may be the effect or the level left
FaDu [9] = assay: Growth inhibition of human squamous cell carcinoma FaDu cells during continuous Exposure ([…]); format: functional, cell-based
Dihydrofolate reductase [10] = molecular target: Dihydrofolate reductase (Lactobacillus casei, UniProt P00381); assay: Inhibitory concentration against Lactobacillus casei Dihydrofolate reductase; design: species or system Lacticaseibacillus casei
Dihydrofolate reductase (Lactobacillus casei, UniProt P00381), sequence (P00381 whole entry): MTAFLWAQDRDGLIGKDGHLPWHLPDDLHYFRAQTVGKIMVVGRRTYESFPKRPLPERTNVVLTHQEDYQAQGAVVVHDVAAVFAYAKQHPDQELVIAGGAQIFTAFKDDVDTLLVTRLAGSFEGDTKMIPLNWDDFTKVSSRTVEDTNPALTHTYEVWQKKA

Thymidylate synthase [11] = molecular target: Thymidylate synthase (Rattus norvegicus, UniProt P45352); assay: Inhibitory concentration against rat Thymidylate synthase (TS)
Thymidylate synthase (Rattus norvegicus, UniProt P45352), sequence (P45352 whole entry): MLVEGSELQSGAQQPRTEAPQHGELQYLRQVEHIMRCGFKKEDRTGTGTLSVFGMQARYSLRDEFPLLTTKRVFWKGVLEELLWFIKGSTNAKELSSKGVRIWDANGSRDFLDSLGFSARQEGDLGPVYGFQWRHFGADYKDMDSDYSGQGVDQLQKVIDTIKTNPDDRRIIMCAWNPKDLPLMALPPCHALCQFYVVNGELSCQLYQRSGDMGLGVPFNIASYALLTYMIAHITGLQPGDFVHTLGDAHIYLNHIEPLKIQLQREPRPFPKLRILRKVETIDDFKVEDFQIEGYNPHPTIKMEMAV

Thymidylate synthase [12] = molecular target: Thymidylate synthase (Homo sapiens, UniProt P04818); assay: Inhibitory concentration against recombinant human (rh) Thymidylate synthase (TS)
Thymidylate synthase (Homo sapiens, UniProt P04818), sequence (P04818 whole entry): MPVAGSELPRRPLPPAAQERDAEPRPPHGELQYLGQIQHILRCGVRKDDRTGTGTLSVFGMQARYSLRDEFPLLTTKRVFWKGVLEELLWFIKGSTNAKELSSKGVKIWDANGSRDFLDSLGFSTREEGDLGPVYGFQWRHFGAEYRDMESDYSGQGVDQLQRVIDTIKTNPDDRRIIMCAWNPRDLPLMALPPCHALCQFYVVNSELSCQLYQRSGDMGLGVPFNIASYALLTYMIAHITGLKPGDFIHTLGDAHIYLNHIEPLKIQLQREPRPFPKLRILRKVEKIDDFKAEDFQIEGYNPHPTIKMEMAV

[13] = molecular target: T1, Bifunctional dihydrofolate reductase-thymidylate synthase; assay: Inhibitory concentration against Toxoplasma gondii Dihydrofolate reductase
Thymidylate synthase [14] = molecular target: Thymidylate synthase (Escherichia coli, UniProt C3SWJ7); assay: Inhibitory concentration against Escherichia coli Thymidylate synthase (TS).
Thymidylate synthase (Escherichia coli, UniProt C3SWJ7), sequence (C3SWJ7 whole entry): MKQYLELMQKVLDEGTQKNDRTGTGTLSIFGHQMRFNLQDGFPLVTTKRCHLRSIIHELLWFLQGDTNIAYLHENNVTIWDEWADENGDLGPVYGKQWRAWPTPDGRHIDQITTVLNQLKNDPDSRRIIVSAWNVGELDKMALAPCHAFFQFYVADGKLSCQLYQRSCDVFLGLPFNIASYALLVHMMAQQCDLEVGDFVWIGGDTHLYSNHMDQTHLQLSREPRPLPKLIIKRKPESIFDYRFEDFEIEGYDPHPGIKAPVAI

CCRF-CEM = assay: Growth inhibition of CCRF-CEM human leukemia cells.; format: functional, cell-based
A253 cell line = assay: Growth inhibition of human squamous cell carcinoma A253 cells during continuous Exposure ([…]); format: functional, cell-based
Dihydrofolate reductase [15] = molecular target: T2, Dihydrofolate reductase
Description: Inhibitory concentration against recombinant human (rh) Dihydrofolate reductase

Thymidylate synthase [16] = molecular target: T3, Thymidylate synthase; assay: Inhibitory concentration against Lactobacillus casei Thymidylate synthase (TS).; design: species or system Lacticaseibacillus casei
Dihydrofolate reductase [17] = molecular target: T4, Dihydrofolate reductase
Description: Inhibitory concentration against Escherichia coli Dihydrofolate reductase

FaDu [18] = assay: protection of FaDu cells from the growth inhibitory effects by the combination of 50 uM of hypoxanthine (HX) and 40 uM of thymidine (TdR).; format: functional, Homo sapiens; design: scale not given: the % may be the effect or the level left
Dihydrofolate reductase [19] = molecular target: T2, Dihydrofolate reductase; assay: Inhibitory activity against Dihydrofolate reductase
[20] = substrate: Nc1nc(N)c2nc(CNc3ccc(C(=O)N[C@@H](CCC(=O)O)C(=O)O)cc3)cnc2n1; assay: (§1) Activity as substrate for recombinant human Folyl-polyglutamate synthase (rhFPGS)
[21] = substrate: C/C(=C/c1coc2nc(N)nc(N)c12)c1ccc(C(=O)N[C@@H](CCC(=O)O)C(=O)O)cc1.C/C(=C\c1coc2nc(N)nc(N)c12)c1ccc(C(=O)N[C@@H](CCC(=O)O)C(=O)O)cc1; assay: as §1
[22] = substrate: C/C(=C\c1coc2nc(N)nc(N)c12)c1ccc(C(=O)N[C@@H](CCC(=O)O)C(=O)O)cc1; assay: as §1
[23] = substrate: CC(Cc1coc2nc(N)nc(N)c12)c1ccc(C(=O)N[C@@H](CCC(=O)O)C(=O)O)cc1; assay: as §1
[24] = substrate: Nc1nc(N)c2nc(CNc3ccc(C(=O)N[C@@H](CCC(=O)O)C(=O)O)cc3)cnc2n1; assay: (§2) Activity as substrate for recombinant human Folyl-polyglutamate synthase (rhFPGS) relative to aminopterin.
[25] = substrate: C/C(=C/c1coc2nc(N)nc(N)c12)c1ccc(C(=O)N[C@@H](CCC(=O)O)C(=O)O)cc1.C/C(=C\c1coc2nc(N)nc(N)c12)c1ccc(C(=O)N[C@@H](CCC(=O)O)C(=O)O)cc1; assay: as §2
[26] = substrate: Nc1nc(N)c2c(CCc3ccc(C(=O)N[C@@H](CCC(=O)O)C(=O)O)cc3)coc2n1; assay: as §2
[27] = substrate: C/C(=C\c1coc2nc(N)nc(N)c12)c1ccc(C(=O)N[C@@H](CCC(=O)O)C(=O)O)cc1; assay: as §2
[28] = substrate: CC(Cc1coc2nc(N)nc(N)c12)c1ccc(C(=O)N[C@@H](CCC(=O)O)C(=O)O)cc1; assay: as §2

Row | Molecule | Ratio [1] | EC50 [2] [nM] | EC50 [5] [nM] | EC50 [6] [nM] | EC50 (FaDu [9]) [nM] | IC50 (Dihydrofolate reductase [10]) [nM] | IC50 (Thymidylate synthase [11]) [nM] | IC50 (Thymidylate synthase [12]) [nM] | IC50 [13] [nM] | IC50 (Thymidylate synthase [14]) [nM] | EC50 (CCRF-CEM) [nM] | EC50 (A253 cell line) [nM] | IC50 (Thymidylate synthase [16]) [nM] | IC50 (Dihydrofolate reductase [17]) [nM] | also measured
1 | Nc1nc(N)c2nc(CNc3ccc(C(=O)N[C@@H](CCC(=O)O)C(=O)O)cc3)cnc2n1 | 0.23 | – | – | – | – | – | – | – | – | – | – | – | – | – | –
2 | Nc1nc(N)c2c(CCc3ccc(C(=O)N[C@@H](CCC(=O)O)C(=O)O)cc3)coc2n1 | 0.07 | 425 | – | – | – | – | – | – | – | – | – | – | – | – | –
3 | CN(Cc1cnc2nc(N)nc(N)c2n1)c1ccc(C(=O)N[C@@H](CCC(=O)O)C(=O)O)cc1 [METHOTREXATE] | – | – | 1600 | 675 | 11.3 | – | – | – | – | – | – | – | – | – | Control (FaDu [3]): 102%; Control (FaDu [4]): 5.75%; Control (FaDu [7]): 11.25%; Control (FaDu [8]): 9.25%
4 | C/C(=C/c1coc2nc(N)nc(N)c12)c1ccc(C(=O)N[C@@H](CCC(=O)O)C(=O)O)cc1.C/C(=C\c1coc2nc(N)nc(N)c12)c1ccc(C(=O)N[C@@H](CCC(=O)O)C(=O)O)cc1 (mixture of isomers) | 0.05 | 6400 | 17000 | 32000 | 1400 | 4400 | > 360000 | > 360000 | 4400 | > 360000 | 1180 | 700 | > 360000 | 1100 | IC50 (Dihydrofolate reductase [15]): 2200 nM
5 | Nc1nc(N)c2c(CNc3ccc(C(=O)N[C@@H](CCC(=O)O)C(=O)O)cc3)coc2n1 | – | 663 | – | 1520 | – | – | – | > 200000 | 700 | – | – | – | – | – | –
6 | CC(Cc1coc2nc(N)nc(N)c12)c1ccc(C(=O)N[C@@H](CCC(=O)O)C(=O)O)cc1 (some centres undefined) | – | 220 | 430 | 685 | 17.5 | 2100 | > 360000 | > 360000 | 2100 | 100000 | 29.2 | 28.5 | > 360000 | 1100 | Control (FaDu [4]): 5.75%; Control (FaDu [18]): 105.25%; Control (FaDu [7]): 3.75%; Control (FaDu [8]): 8%
7 | C/C(=C\c1coc2nc(N)nc(N)c12)c1ccc(C(=O)N[C@@H](CCC(=O)O)C(=O)O)cc1 | 0.15 | – | – | – | > 10000 | 84000 | > 360000 | > 360000 | 110000 | > 360000 | 34000 | > 10000 | > 360000 | 11000 | IC50 (Dihydrofolate reductase [15]): 42000 nM
8 | Nc1nc(N)c2c(CNCc3ccc(C(=O)N[C@@H](CCC(=O)O)C(=O)O)cc3)coc2n1 | – | – | – | – | – | – | – | – | – | – | – | – | – | – | IC50 (Dihydrofolate reductase [19]): 10000 nM
9 | CN(Cc1coc2nc(N)nc(N)c12)c1ccc(C(=O)N[C@@H](CCC(=O)O)C(=O)O)cc1 [FURO[2,3D]PYRIMIDINE ANTIFOLATE] | – | 1030 | – | 807 | – | 220 | – | > 200000 | 19800 | – | – | – | > 200000 | – | –
10 | B1 | – | – | – | – | – | – | – | – | – | – | – | – | – | – | Km [20]: 4.5 µM; Km [21]: 10.3 µM; Km [22]: 5.3 µM; Km [23]: 1.2 µM; Vmax [24]: 1; Vmax [25]: 0.56; Vmax [26]: 0.065; Vmax [27]: 0.76; Vmax [28]: 0.52
